For orientation: Ki means the equilibrium dissociation constant of an inhibitor or competing ligand from its target.

This is an account of results in patent US20200199127A1, “(HETERO)ARYLALKYLAMINO-PYRAZOLOPYRIDAZINE DERIVATIVES HAVING MULTIMODAL ACTIVITY AGAINST PAIN” (priority 2017, published 2020).

The target of test [1] is Human norepinephrine transporter (NET) (Homo sapiens, UniProt P23975). As to the kind of experiment: Binding assay to human norepinephrine transporter (NET), [3H]-Nisoxetin. The settings on record: human NET enriched membranes, 5 nM [3H]-Nisoxetin; Ki as class symbol. As for the experimental part:
Binding Assay to Human Norepinephrine Transporter (NET).
Human norepinephrine transporter (NET) enriched membranes (5 μg) were incubated with 5 nM of radiolabeled [3H]-Nisoxetin in assay buffer containing 50 mM Tris-HCl, 120 mM NaCl, 5 mM KCl, pH 7.4.
NSB (non specific binding) was measured by adding 10 μM of desipramine. The binding of the test compound was measured at five different concentrations.. After 60 min incubation at 4° C., binding reaction was terminated by filtering through Multiscreen GF/C (Millipore) presoaked in 0.5% polyethyleneimine in Vacuum Manifold Station, followed by 3 washes with ice-cold filtration buffer containing 50 mM Tris-HCl, 0.9% NaCl, pH 7.4.
Filter plates were dried at 60° C. for 1 hour and 30 μl of scintillation cocktail were added to each well before radioactivity reading.

Test [2] has as its target Human α2δ-1 subunit of Cav2.2 calcium channel (Homo sapiens, UniProt P54289). As to the kind of experiment: Human α2δ-1 subunit of Cav2.2 calcium channel assay, [3H]-Gabapentin binding. The settings on record: human α2δ-1 enriched membranes, 15 nM [3H]-Gabapentin; Ki as class symbol. As for the experimental part:
Human α2δ-1 Subunit of Cav2.2 Calcium Channel Assay
Human α2δ-1 enriched membranes (2.5 μg) were incubated with 15 nM of radiolabeled [3H]-Gabapentin in assay buffer containing Hepes-KOH 10 mM, pH 7.4. NSB (non specific binding) was measured by adding 10 μM pregabalin. The binding of the test compound was measured at five different concentrations. After 60 min incubation at 27° C., binding reaction was terminated by filtering through Multiscreen GF/C (Millipore) presoaked in 0.5% polyethyleneimine in Vacuum Manifold Station, followed by 3 washes with ice-cold filtration buffer containing 50 mM Tris-HCl, pH 7.4. Filter plates were dried at 60° C. for 1 hour and 30 μl of scintillation cocktail were added to each well before radioactivity reading. Readings were performed in a Trilux 1450 Microbeta radioactive counter (Perkin Elmer).

Sequence of Human α2δ-1 subunit of Cav2.2 calcium channel (P54289 25-1103): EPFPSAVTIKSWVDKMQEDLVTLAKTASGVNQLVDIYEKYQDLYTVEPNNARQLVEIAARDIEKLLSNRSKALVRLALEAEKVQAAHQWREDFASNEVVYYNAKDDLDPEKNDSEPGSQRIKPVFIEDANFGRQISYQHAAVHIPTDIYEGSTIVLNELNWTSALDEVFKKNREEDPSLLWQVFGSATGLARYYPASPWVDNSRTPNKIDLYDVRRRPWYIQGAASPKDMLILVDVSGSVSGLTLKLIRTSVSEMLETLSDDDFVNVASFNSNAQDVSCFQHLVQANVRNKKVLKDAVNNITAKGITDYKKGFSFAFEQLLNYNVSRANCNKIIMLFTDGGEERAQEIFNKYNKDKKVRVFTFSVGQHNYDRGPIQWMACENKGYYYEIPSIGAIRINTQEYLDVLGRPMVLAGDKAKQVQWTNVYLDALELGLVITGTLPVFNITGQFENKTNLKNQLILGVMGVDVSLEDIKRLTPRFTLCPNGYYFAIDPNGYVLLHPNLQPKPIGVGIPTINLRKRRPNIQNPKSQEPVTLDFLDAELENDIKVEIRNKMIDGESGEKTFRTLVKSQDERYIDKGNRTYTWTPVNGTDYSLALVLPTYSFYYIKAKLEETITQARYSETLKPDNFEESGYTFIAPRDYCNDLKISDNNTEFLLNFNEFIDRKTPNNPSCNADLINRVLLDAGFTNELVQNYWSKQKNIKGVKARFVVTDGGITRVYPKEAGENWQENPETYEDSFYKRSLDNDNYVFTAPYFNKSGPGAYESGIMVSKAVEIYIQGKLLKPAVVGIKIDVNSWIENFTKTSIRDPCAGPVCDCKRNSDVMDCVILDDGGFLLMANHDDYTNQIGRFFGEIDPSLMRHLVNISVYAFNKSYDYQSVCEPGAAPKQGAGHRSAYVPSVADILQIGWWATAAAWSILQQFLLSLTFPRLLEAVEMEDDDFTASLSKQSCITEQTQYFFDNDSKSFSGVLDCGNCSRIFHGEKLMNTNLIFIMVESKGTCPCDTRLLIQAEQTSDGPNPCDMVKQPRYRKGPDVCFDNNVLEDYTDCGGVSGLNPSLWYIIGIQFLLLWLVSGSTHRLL
Sequence of Human norepinephrine transporter (NET) (P23975 whole entry): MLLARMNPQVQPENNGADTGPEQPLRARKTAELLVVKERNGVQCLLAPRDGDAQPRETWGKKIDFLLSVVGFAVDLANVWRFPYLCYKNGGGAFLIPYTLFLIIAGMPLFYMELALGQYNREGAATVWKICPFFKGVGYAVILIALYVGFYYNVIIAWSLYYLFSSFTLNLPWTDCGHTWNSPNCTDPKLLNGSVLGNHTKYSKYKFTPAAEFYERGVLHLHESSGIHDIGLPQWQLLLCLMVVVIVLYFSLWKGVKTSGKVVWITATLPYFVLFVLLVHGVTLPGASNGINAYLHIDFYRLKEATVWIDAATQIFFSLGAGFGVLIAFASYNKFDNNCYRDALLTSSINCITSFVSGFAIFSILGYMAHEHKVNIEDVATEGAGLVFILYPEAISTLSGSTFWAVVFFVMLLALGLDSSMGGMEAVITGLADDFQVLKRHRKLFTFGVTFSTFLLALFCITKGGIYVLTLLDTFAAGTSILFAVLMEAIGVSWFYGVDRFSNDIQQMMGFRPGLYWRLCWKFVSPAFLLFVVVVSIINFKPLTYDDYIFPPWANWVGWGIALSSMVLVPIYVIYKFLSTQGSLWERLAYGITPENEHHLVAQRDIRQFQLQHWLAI

For `CCOc1ccc(-n2nc3c(NCC(O)Cc4ccccc4)nnc(C)c3c2C)c(F)c1` (stereo not shown) [Example 19, 1-((2-(4-ethoxy-2-fluorophenyl)-3,4-dimethyl-2H-pyrazolo[3,4-d]pyridazin-7-yl)amino)-3-phenylpropan-2-ol], the Ki in test [1] was above 1000 nM; in test [2] it was 100 to 500 nM.
As for `CCOc1ccc(-n2nc3c(NCc4ncccc4C(F)(F)F)nnc(C)c3c2C)c(F)c1` [Example 20, 2-(4-ethoxy-2-fluorophenyl)-3,4-dimethyl-N-((3-(trifluoromethyl)pyridin-2-yl)methyl)-2H-pyrazolo[3,4-d]pyridazin-7-amine], the inhibitory constant (Ki) in test [1] was above 1000 nM; in test [2] it was 100 to 500 nM.
As for `CCOc1ccc(-n2nc3c(N(C)CCCc4ccccc4O)nnc(C)c3c2C)c(F)c1` [Example 21, 2-(3-((2-(4-ethoxy-2-fluorophenyl)-3,4-dimethyl-2H-pyrazolo[3,4-d]pyridazin-7-yl)(methyl)amino)propyl)phenol], the Ki in test [1] is 500 to 1000 nM; in test [2], at least 5000 nM.
For `CCOc1ccc(-n2nc3c(NCc4cc(C)ccn4)nnc(C)c3c2C)c(F)c1` [Example 22, 2-(4-ethoxy-2-fluorophenyl)-3,4-dimethyl-N-((4-methylpyridin-2-yl)methyl)-2H-pyrazolo[3,4-d]pyridazin-7-amine] the same measures were above 1000 nM and 100 to 500 nM.
Take `CCOc1ccc(-n2nc3c(N(C)Cc4ccccc4O)nnc(C)c3c2C)c(F)c1` [Example 23, 2-(((2-(4-ethoxy-2-fluorophenyl)-3,4-dimethyl-2H-pyrazolo[3,4-d]pyridazin-7-yl)(methyl)amino)methyl)phenol]: the results for the Ki in test [1] and in test [2] were 500 to 1000 nM and 100 to 500 nM, respectively.
Regarding `CCOc1ccc(-n2nc3c(N(C)Cc4cnc[nH]4)nnc(C)c3c2C)c(F)c1` [Example 24, N-((1H-imidazol-5-yl)methyl)-2-(4-ethoxy-2-fluorophenyl)-N,3,4-trimethyl-2H-pyrazolo[3,4-d]pyridazin-7-amine], the inhibition constant (Ki) in test [1] was above 1000 nM; in test [2], 100 to 500 nM.
For the compound `CCOc1ccc(-n2nc3c(N(C)Cc4ncc[nH]4)nnc(C)c3c2C)c(F)c1` [Example 25, N-((1H-imidazol-2-yl)methyl)-2-(4-ethoxy-2-fluorophenyl)-N,3,4-trimethyl-2H-pyrazolo[3,4-d]pyridazin-7-amine], the Ki in test [1] is above 1000 nM; in test [2] it was 500 to 5000 nM.
In the same order, the values of `CCOc1ccc(-n2nc3c(N(C)Cc4ncccn4)nnc(C)c3c2C)c(F)c1` [Example 26, 2-(4-ethoxy-2-fluorophenyl)-N,3,4-trimethyl-N-(pyrimidin-2-ylmethyl)-2H-pyrazolo[3,4-d]pyridazin-7-amine] are above 1000 nM and 100 to 500 nM.
As to `CCOc1ccc(-n2nc3c(N(C)Cc4ccon4)nnc(C)c3c2C)c(F)c1` [Example 27, 2-(4-ethoxy-2-fluorophenyl)-N-(isoxazol-3-ylmethyl)-N,3,4-trimethyl-2H-pyrazolo[3,4-d]pyridazin-7-amine], the Ki in test [1] was above 1000 nM; in test [2] it was 500 to 5000 nM.
For `CCOc1ccc(-n2nc3c(N(C)Cc4ccn[nH]4)nnc(C)c3c2C)c(F)c1` [Example 28, N-((1H-pyrazol-5-yl)methyl)-2-(4-ethoxy-2-fluorophenyl)-N,3,4-trimethyl-2H-pyrazolo[3,4-d]pyridazin-7-amine], the Ki in test [1] was above 1000 nM; in test [2], 100 to 500 nM.
`CCOc1ccc(-n2nc3c(N(C)Cc4cscn4)nnc(C)c3c2C)c(F)c1` [Example 29, 2-(4-ethoxy-2-fluorophenyl)-N,3,4-trimethyl-N-(thiazol-4-ylmethyl)-2H-pyrazolo[3,4-d]pyridazin-7-amine]: the inhibition constant Ki in test [1] was above 1000 nM; in test [2], 100 to 500 nM.
With `CCOc1ccc(-n2nc3c(N(C)Cc4cccc(OC)n4)nnc(C)c3c2C)c(F)c1` [Example 30, 2-(4-ethoxy-2-fluorophenyl)-N-((6-methoxypyridin-2-yl)methyl)-N,3,4-trimethyl-2H-pyrazolo[3,4-d]pyridazin-7-amine], the results for the Ki in test [1] and in test [2] were 500 to 1000 nM and 100 to 500 nM, respectively.
In the same order, the values of `CCOc1ccc(-n2nc3c(N(C)Cc4cc(OC)ccn4)nnc(C)c3c2C)c(F)c1` [Example 31, 2-(4-ethoxy-2-fluorophenyl)-N-((4-methoxypyridin-2-yl)methyl)-N,3,4-trimethyl-2H-pyrazolo[3,4-d]pyridazin-7-amine] are above 1000 nM and 100 to 500 nM.
For the compound `CCOc1ccc(-n2nc3c(N(C)Cc4ncccc4C)nnc(C)c3c2C)c(F)c1` [Example 32, 2-(4-ethoxy-2-fluorophenyl)-N,3,4-trimethyl-N-((3-methylpyridin-2-yl)methyl)-2H-pyrazolo[3,4-d]pyridazin-7-amine], the inhibition constant (Ki) in test [1] and in test [2] was 100 to 500 nM throughout.
As for `CCOc1ccc(-n2nc3c(N(C)Cc4ncccc4F)nnc(C)c3c2C)c(F)c1` [Example 33, 2-(4-ethoxy-2-fluorophenyl)-N-((3-fluoropyridin-2-yl)methyl)-N,3,4-trimethyl-2H-pyrazolo[3,4-d]pyridazin-7-amine], the inhibitory constant (Ki) in test [1] and in test [2] was 100 to 500 nM each time.
Take `CCOc1ccc(-n2nc3c(N(C)Cc4ccc(C)cn4)nnc(C)c3c2C)c(F)c1` [Example 34, 2-(4-ethoxy-2-fluorophenyl)-N,3,4-trimethyl-N-((5-methylpyridin-2-yl)methyl)-2H-pyrazolo[3,4-d]pyridazin-7-amine]: the results for the inhibition constant Ki in test [1] and in test [2] were above 1000 nM and 100 to 500 nM, respectively.
For `CCOc1ccc(-n2nc3c(N(C)Cc4cnccn4)nnc(C)c3c2C)c(F)c1` [Example 35, 2-(4-ethoxy-2-fluorophenyl)-N,3,4-trimethyl-N-(pyrazin-2-ylmethyl)-2H-pyrazolo[3,4-d]pyridazin-7-amine] the same measures were above 1000 nM and 100 to 500 nM.
`CCOc1ccc(-n2nc3c(N(C)Cc4ccncn4)nnc(C)c3c2C)c(F)c1` [Example 36, 2-(4-ethoxy-2-fluorophenyl)-N,3,4-trimethyl-N-(pyrimidin-4-ylmethyl)-2H-pyrazolo[3,4-d]pyridazin-7-amine]: the inhibitory constant (Ki) in test [1] was above 1000 nM; in test [2], 100 to 500 nM.
On to `CCOc1ccc(-n2nc3c(NCc4ccccc4CO)nnc(C)c3c2C)c(F)c1` [Example 37, (2-(((2-(4-ethoxy-2-fluorophenyl)-3,4-dimethyl-2H-pyrazolo[3,4-d]pyridazin-7-yl)amino)methyl)phenyl)methanol], for which the inhibition constant (Ki) in test [1] is above 1000 nM; in test [2] it was 100 to 500 nM.
Regarding `CCOc1ccc(-n2nc3c(N(C)CCC(N)c4ccccc4)nnc(C)c3c2C)c(F)c1` (stereo not shown) [Example 39, N1-(2-(4-ethoxy-2-fluorophenyl)-3,4-dimethyl-2H-pyrazolo[3,4-d]pyridazin-7-yl)-N1-methyl-3-phenylpropane-1,3-diamine], the Ki in test [1] is 500 to 1000 nM; in test [2] it was at least 5000 nM.
Consider `CCOc1ccc(-n2nc3c(N(CC)Cc4ccccn4)nnc(C)c3c2C)c(F)c1` [Example 40, 2-(4-ethoxy-2-fluorophenyl)-N-ethyl-3,4-dimethyl-N-(pyridin-2-ylmethyl)-2H-pyrazolo[3,4-d]pyridazin-7-amine], for which the Ki in test [1] lay within 100 to 500 nM; in test [2] it was 500 to 5000 nM.
Consider `CCOc1ccc(-n2nc3c(N(C)Cc4ccccc4CNC)nnc(C)c3c2C)c(F)c1` [Example 43, 2-(4-ethoxy-2-fluorophenyl)-N,3,4-trimethyl-N-(2-((methylamino)methyl)benzyl)-2H-pyrazolo[3,4-d]pyridazin-7-amine], for which the inhibition constant (Ki) is 100 to 500 nM in test [1] and 500 to 5000 nM in test [2].
As for `COc1ccc(-n2nc3c(N(C)Cc4ccccn4)nnc(C)c3c2C)c(F)c1` [Example 45, 2-(2-fluoro-4-methoxyphenyl)-N,3,4-trimethyl-N-(pyridin-2-ylmethyl)-2H-pyrazolo[3,4-d]pyridazin-7-amine], the inhibitory constant (Ki) in test [1] was above 1000 nM; in test [2] it was at least 5000 nM.
In the case of `Cc1nnc(N(C)Cc2ccccn2)c2nn(-c3ccc(O)cc3)c(C)c12` [Example 47, 4-(3,4-dimethyl-7-(methyl(pyridin-2-ylmethyl)amino)-2H-pyrazolo[3,4-d]pyridazin-2-yl)phenol], the Ki in test [1] was above 1000 nM; in test [2], at least 5000 nM.
With `COc1ccc(-n2nc3c(N(C)Cc4ccccn4)nnc(C)c3c2C)cc1` [Example 48, 2-(4-methoxyphenyl)-N,3,4-trimethyl-N-(pyridin-2-ylmethyl)-2H-pyrazolo[3,4-d]pyridazin-7-amine], the figures for the inhibitory constant (Ki) in test [1] and in test [2] were above 1000 nM and 500 to 5000 nM, respectively.
Consider `CCOc1ccc(-n2nc3c(N(CCO)Cc4ccncc4)nnc(C)c3c2C)c(F)c1` [Example 53, 2-((2-(4-Ethoxy-2-fluorophenyl)-3,4-dimethyl-2H-pyrazolo[3,4-d]pyridazin-7-yl)(pyridin-4-ylmethyl)amino)ethanol], for which the Ki in test [1] was above 1000 nM; in test [2], at least 5000 nM.
